Source: patent publication US20180305329A1, “XANTHINE COMPOUND AND USE THEREOF” (SUMITOMO CHEMICAL COMPANY, LIMITED, priority 2015, published 2018)

Experiments:
[1] = Spectroscopic properties: quantum efficiency (QE-1100); type: physicochemical; conditions: fluorescence
Description: Quantum Efficiency (QE): QE-1100 (Otsuka Electronics Co., Ltd.)

human CYP3A4 = target: T1, human CYP3A4 (Homo sapiens, UniProt P08684); assay: Metabolism test with recombinant CYP microsomes (molecular species selectivity); type: in vitro ADME; conditions: human CYP3A4 Supersomes, CYP 2 pmol; 3 μM compound (2); 1 mM NADPH; pH 7.4; 37° C., 20 minutes; mean ± SD
T1 construct: purchased Nippon BD (BD Supersomes); host or cells: recombinant insect cells (microsomes)
Method: (§1) A 100 mM phosphate buffer solution (pH 7.4) containing 3 μM of the compound (2) synthesized according to Example 2, 1 mM of NADPH (Wako Pure Chemical Industries, Ltd.) and 0.1% of DMSO was prepared. In each of the wells of a 96-well plate, 2 μL of each microsome from recombinant insect cell expressing different type of molecular species of CYP (CYP 2 pmol, BD Supersomes™, Nippon BD) was placed, followed by addition of 198 μL of the above-described phosphate buffer solution to start the reaction, which was incubated at 37° C. for 20 minutes. The reaction was stopped by adding 100 μL of acetonitrile (Nacalai Tesque, Inc.), and the fluorescence intensity of the obtained reaction solution was measured at the fluorescence wavelength of 520 nm with an excitation wavelength of 482 nm. A calibration curve was prepared by using the 0 μM, 0.01 μM, 0.05 μM, 0.1 μM, 0.50 μM and 1 μM solutions (100 mM phosphate buffer/acetonitrile=2/1) of the compound (1).

rat CYP3A1 = target: T2, rat CYP3A1 (Rattus norvegicus, UniProt P04800); assay: as above; type: in vitro ADME; conditions: rat CYP3A1 Supersomes, CYP 2 pmol; 3 μM compound (2); 1 mM NADPH; pH 7.4; 37° C., 20 minutes; mean ± SD
T2 construct: purchased Nippon BD (BD Supersomes); host or cells: recombinant insect cells (microsomes)
T2 sequence (P04800 1-504): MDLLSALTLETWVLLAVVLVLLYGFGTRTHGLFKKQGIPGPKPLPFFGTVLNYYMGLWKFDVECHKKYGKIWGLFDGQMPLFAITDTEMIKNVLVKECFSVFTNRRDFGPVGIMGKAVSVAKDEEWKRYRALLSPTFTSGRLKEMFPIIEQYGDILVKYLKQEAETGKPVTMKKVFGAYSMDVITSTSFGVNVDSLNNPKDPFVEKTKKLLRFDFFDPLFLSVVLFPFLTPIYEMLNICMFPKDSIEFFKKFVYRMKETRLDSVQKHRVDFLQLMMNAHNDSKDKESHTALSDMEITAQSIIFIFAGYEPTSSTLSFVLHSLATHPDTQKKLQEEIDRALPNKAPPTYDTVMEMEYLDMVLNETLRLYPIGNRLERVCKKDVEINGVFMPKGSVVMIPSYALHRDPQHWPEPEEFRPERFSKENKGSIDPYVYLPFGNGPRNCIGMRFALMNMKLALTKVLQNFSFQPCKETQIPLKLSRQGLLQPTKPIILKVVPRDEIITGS
Method: as §1

human CYP2E1 = target: T3, human CYP2E1 (Homo sapiens, UniProt P05181); assay: as above; type: in vitro ADME; conditions: human CYP2E1 Supersomes, CYP 2 pmol; 3 μM compound (2); 1 mM NADPH; pH 7.4; 37° C., 20 minutes; mean ± SD
T3 construct: purchased Nippon BD (BD Supersomes); host or cells: recombinant insect cells (microsomes)
Method: as §1

rat CYP2D1 = target: T4, rat CYP2D1 (Rattus norvegicus, UniProt P10633); assay: as above; type: in vitro ADME; conditions: rat CYP2D1 Supersomes, CYP 2 pmol; 3 μM compound (2); 1 mM NADPH; pH 7.4; 37° C., 20 minutes; mean ± SD
T4 construct: purchased Nippon BD (BD Supersomes); host or cells: recombinant insect cells (microsomes)
T4 sequence (P10633 1-504): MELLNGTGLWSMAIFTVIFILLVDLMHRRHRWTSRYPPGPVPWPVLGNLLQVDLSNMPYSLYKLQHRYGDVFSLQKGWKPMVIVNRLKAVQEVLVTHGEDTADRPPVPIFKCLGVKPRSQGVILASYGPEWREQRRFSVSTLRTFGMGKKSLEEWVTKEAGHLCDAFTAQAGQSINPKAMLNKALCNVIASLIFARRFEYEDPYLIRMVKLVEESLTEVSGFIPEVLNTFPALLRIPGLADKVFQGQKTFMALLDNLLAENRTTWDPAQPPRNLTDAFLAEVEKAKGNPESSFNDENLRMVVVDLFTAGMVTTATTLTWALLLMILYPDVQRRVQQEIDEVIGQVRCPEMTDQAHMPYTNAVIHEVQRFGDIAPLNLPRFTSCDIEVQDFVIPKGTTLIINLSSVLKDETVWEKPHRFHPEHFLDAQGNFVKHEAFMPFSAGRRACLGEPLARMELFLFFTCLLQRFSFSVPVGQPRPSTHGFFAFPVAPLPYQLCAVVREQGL
Method: as §1

rat CYP3A2 = target: T5, rat CYP3A2 (Rattus norvegicus, UniProt P05183); assay: as above; type: in vitro ADME; conditions: rat CYP3A2 Supersomes, CYP 2 pmol; 3 μM compound (2); 1 mM NADPH; pH 7.4; 37° C., 20 minutes; mean ± SD
T5 construct: purchased Nippon BD (BD Supersomes); host or cells: recombinant insect cells (microsomes)
T5 sequence (P05183 1-504): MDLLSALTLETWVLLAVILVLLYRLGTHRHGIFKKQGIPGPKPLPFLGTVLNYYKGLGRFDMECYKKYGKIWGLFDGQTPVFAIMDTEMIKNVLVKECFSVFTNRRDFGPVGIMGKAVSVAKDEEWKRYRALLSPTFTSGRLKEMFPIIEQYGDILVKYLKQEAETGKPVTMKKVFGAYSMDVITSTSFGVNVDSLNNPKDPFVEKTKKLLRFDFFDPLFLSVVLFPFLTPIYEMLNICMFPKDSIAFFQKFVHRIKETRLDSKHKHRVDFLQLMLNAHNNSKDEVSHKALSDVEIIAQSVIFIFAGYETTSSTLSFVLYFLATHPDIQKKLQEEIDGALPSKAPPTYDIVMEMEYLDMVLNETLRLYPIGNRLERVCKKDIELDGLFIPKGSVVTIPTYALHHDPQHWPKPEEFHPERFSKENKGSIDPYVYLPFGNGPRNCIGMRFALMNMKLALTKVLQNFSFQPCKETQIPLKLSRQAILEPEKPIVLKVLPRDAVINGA
Method: as §1

human and rat CYP3A = assay: Molecular species selectivity evaluation, overall conclusion; type: in vitro ADME; conditions: conclusion from Tables 2 and 3
Method: as §1

T3 sequence (P05181 whole entry): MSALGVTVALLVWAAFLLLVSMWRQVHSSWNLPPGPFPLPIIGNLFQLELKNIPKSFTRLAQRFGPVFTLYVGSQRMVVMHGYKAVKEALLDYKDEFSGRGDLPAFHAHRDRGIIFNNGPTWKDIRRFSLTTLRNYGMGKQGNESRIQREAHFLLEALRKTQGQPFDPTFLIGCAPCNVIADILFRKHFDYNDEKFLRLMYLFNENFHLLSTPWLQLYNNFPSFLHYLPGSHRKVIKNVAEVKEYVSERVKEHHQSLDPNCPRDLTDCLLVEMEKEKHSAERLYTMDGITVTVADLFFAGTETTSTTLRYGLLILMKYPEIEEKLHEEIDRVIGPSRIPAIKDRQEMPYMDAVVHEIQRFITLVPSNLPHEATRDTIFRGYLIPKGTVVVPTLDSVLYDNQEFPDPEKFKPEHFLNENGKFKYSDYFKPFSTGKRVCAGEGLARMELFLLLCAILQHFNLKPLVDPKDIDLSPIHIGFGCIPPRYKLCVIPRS
T1 sequence (P08684 whole entry): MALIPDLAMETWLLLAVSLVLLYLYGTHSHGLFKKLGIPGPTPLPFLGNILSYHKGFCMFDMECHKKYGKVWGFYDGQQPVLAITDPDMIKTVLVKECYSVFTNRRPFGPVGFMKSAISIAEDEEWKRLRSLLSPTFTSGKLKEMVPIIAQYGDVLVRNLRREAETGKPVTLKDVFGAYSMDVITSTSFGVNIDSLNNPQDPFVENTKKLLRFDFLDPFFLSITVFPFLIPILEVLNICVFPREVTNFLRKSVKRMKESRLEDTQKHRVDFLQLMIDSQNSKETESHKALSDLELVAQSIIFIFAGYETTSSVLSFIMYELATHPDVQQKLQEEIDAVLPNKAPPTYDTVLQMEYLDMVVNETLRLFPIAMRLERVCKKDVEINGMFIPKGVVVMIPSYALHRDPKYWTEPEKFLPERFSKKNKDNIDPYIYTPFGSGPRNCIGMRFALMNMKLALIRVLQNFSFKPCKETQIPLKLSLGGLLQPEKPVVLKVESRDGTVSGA

SMILES | Quantum Efficiency [1] [%] | amount of the compound (1) produced by reacting the compound (2) with CYP (human CYP3A4) | amount of the compound (1) produced by reacting the compound (2) with CYP (rat CYP3A1) | amount of the compound (1) produced by reacting the compound (2) with CYP (human CYP2E1) | amount of the compound (1) produced by reacting the compound (2) with CYP (rat CYP2D1) | amount of the compound (1) produced by reacting the compound (2) with CYP (rat CYP3A2) | CYP molecular species selectivity as substrate (human and rat CYP3A)
COc1ccc(-c2c3ccc(=O)cc-3oc3cc(O)ccc23)c(C)c1 [Compound (1), 6-hydroxy-9-(4-methoxy-2-methylphenyl)-3H-xanthen-3-one] | 85.3 |  |  |  |  |  | 
COc1ccc(-c2c3ccc(=O)cc-3oc3cc(OCc4cc(C(F)(F)F)ccc4C(F)(F)F)ccc23)c(C)c1 [Compound (2), 9-(4-methoxy-2-methylphenyl)-6-bis(2,5-trifluoromethyl)benzyloxy-3H-xanthen-3-one] | 20.6 | 2.4913 ± 0.0497 (3) pmol/min/mg protein | 0.2190 ± 0.0095 (3) pmol/min/mg protein | 0.0038 ± 0.0052 (3) pmol/min/mg protein | 0.0151 ± 0.0081 (3) pmol/min/mg protein | 0.0912 ± 0.0105 (3) pmol/min/mg protein | substrate specific to human and rat CYP3A
